# From paper PMC12440775 (Frontiers in Pharmacology, 2025)
# Entries after “also recorded” stand apart in the source; their conditions may differ. Marks after values point to notes of the source that are not given here.
# Test: Safety and tolerability, single ascending dose (Part 1)
# Assay type: in vivo, human
# Conditions: for Abdominal pain / Diarrhea / Dizziness / Flatulence / Gastrointestinal disorders / Headache / Hepatobiliary disorders / Hyperbilirubinemia / Jaundice / Nausea / Nervous system disorders / Retching / Subjects with any AE / Vomiting: 6 subjects
# Procedure: Six volunteers received the active drug at each dose level dissolved in a polyethylene glycol (PEG)/tromethamine (TRIS)/meglumine solution, and two received a placebo. One dose level was tested within each group. Subject groups were dosed and evaluated sequentially, beginning with the lowest-dose group and proceeding stepwise to the highest-dose group. The next higher dose was administered only if no safety concerns arose during treatment of the preceding group.
# Safety was assessed throughout the study by monitoring changes in clinical laboratory parameters (e.g., serum biochemistry, hematology, and urinalysis), 12-lead electrocardiograms, or vital signs (blood pressure, pulse rate, and temperature measurements); monitoring for occurrence of AEs); and carrying out physical examinations.
smiles,measurement,setting,value
"C=C[C@@H]1C[C@]1(NC(=O)[C@@H]1C[C@@H](Oc2cc(-c3csc(NC(=O)C(C)C)n3)nc3c(Br)c(OC)ccc23)CN1C(=O)[C@@H](NC(=O)OC1CCCC1)C(C)(C)C)C(=O)O [FDV, Faldaprevir]",Subjects with increases in total bilirubin,"120 mg, Part 1",two subjects
same,Subjects with increases in total bilirubin,"240 mg, Part 1",three subjects
same,Subjects with increases in total bilirubin,"480 mg, Part 1",five subjects
same,Subjects with increases in total bilirubin,"800 mg, Part 1",six subjects
same,Subjects with increases in total bilirubin,"1,200 mg, Part 1",six subjects
same,Subjects with marked hyperbilirubinemia / indirect (unconjugated) bilirubin >3.0 mg/dL,"480-mg group, Part 1",two subjects
same,Subjects with marked hyperbilirubinemia / indirect (unconjugated) bilirubin >3.0 mg/dL,"1,200-mg group, Part 1",five subjects
same,Abdominal pain,FDV 4 mg,0 n (%)
same,Diarrhea,FDV 4 mg,0 n (%)
same,Dizziness,FDV 4 mg,0 n (%)
same,Flatulence,FDV 4 mg,0 n (%)
same,Gastrointestinal disorders,FDV 4 mg,1 (16.7) n (%)
same,Headache,FDV 4 mg,1 (16.7) n (%)
same,Hepatobiliary disorders,FDV 4 mg,0 n (%)
same,Hyperbilirubinemia,FDV 4 mg,0 n (%)
same,Jaundice,FDV 4 mg,0 n (%)
same,Nausea,FDV 4 mg,1 (16.7) n (%)
same,Nervous system disorders,FDV 4 mg,1 (16.7) n (%)
same,Retching,FDV 4 mg,0 n (%)
same,Subjects with any AE,FDV 4 mg,1 (16.7) n (%)
same,Vomiting,FDV 4 mg,0 n (%)
same,Abdominal pain,FDV 16 mg,0 n (%)
same,Diarrhea,FDV 16 mg,0 n (%)
same,Dizziness,FDV 16 mg,0 n (%)
same,Flatulence,FDV 16 mg,0 n (%)
same,Gastrointestinal disorders,FDV 16 mg,0 n (%)
same,Headache,FDV 16 mg,0 n (%)
same,Hepatobiliary disorders,FDV 16 mg,0 n (%)
same,Hyperbilirubinemia,FDV 16 mg,0 n (%)
same,Jaundice,FDV 16 mg,0 n (%)
same,Nausea,FDV 16 mg,0 n (%)
same,Nervous system disorders,FDV 16 mg,0 n (%)
same,Retching,FDV 16 mg,0 n (%)
same,Subjects with any AE,FDV 16 mg,0 n (%)
same,Vomiting,FDV 16 mg,0 n (%)
same,Abdominal pain,FDV 48 mg,0 n (%)
same,Diarrhea,FDV 48 mg,0 n (%)
same,Dizziness,FDV 48 mg,1 (16.7) n (%)
same,Flatulence,FDV 48 mg,0 n (%)
same,Gastrointestinal disorders,FDV 48 mg,0 n (%)
same,Headache,FDV 48 mg,1 (16.7) n (%)
same,Hepatobiliary disorders,FDV 48 mg,0 n (%)
same,Hyperbilirubinemia,FDV 48 mg,0 n (%)
same,Jaundice,FDV 48 mg,0 n (%)
same,Nausea,FDV 48 mg,0 n (%)
same,Nervous system disorders,FDV 48 mg,1 (16.7) n (%)
same,Retching,FDV 48 mg,0 n (%)
same,Subjects with any AE,FDV 48 mg,3 (50.0) n (%)
same,Vomiting,FDV 48 mg,0 n (%)
same,Abdominal pain,FDV 120 mg,0 n (%)
same,Diarrhea,FDV 120 mg,1 (16.7) n (%)
same,Dizziness,FDV 120 mg,0 n (%)
same,Flatulence,FDV 120 mg,0 n (%)
same,Gastrointestinal disorders,FDV 120 mg,1 (16.7) n (%)
same,Headache,FDV 120 mg,0 n (%)
same,Hepatobiliary disorders,FDV 120 mg,0 n (%)
same,Hyperbilirubinemia,FDV 120 mg,0 n (%)
same,Jaundice,FDV 120 mg,0 n (%)
same,Nausea,FDV 120 mg,0 n (%)
same,Nervous system disorders,FDV 120 mg,0 n (%)
same,Retching,FDV 120 mg,0 n (%)
same,Subjects with any AE,FDV 120 mg,1 (16.7) n (%)
same,Vomiting,FDV 120 mg,0 n (%)
same,Abdominal pain,FDV 240 mg,1 (16.7) n (%)
same,Diarrhea,FDV 240 mg,0 n (%)
same,Dizziness,FDV 240 mg,0 n (%)
same,Flatulence,FDV 240 mg,0 n (%)
same,Gastrointestinal disorders,FDV 240 mg,2 (33.3) n (%)
same,Headache,FDV 240 mg,2 (33.3) n (%)
same,Hepatobiliary disorders,FDV 240 mg,0 n (%)
same,Hyperbilirubinemia,FDV 240 mg,0 n (%)
same,Jaundice,FDV 240 mg,0 n (%)
same,Nausea,FDV 240 mg,1 (16.7) n (%)
same,Nervous system disorders,FDV 240 mg,2 (33.3) n (%)
same,Retching,FDV 240 mg,0 n (%)
same,Subjects with any AE,FDV 240 mg,5 (83.3) n (%)
same,Vomiting,FDV 240 mg,1 (16.7) n (%)
same,Abdominal pain,FDV 480 mg,0 n (%)
same,Diarrhea,FDV 480 mg,3 (50.0) n (%)
same,Dizziness,FDV 480 mg,1 (16.7) n (%)
same,Flatulence,FDV 480 mg,1 (16.7) n (%)
same,Gastrointestinal disorders,FDV 480 mg,4 (66.7) n (%)
same,Headache,FDV 480 mg,3 (50.0) n (%)
same,Hepatobiliary disorders,FDV 480 mg,2 (33.3) n (%)
same,Hyperbilirubinemia,FDV 480 mg,2 (33.3) n (%)
same,Jaundice,FDV 480 mg,0 n (%)
same,Nausea,FDV 480 mg,2 (33.3) n (%)
same,Nervous system disorders,FDV 480 mg,4 (66.7) n (%)
same,Retching,FDV 480 mg,2 (33.3) n (%)
same,Subjects with any AE,FDV 480 mg,6 (100) n (%)
same,Vomiting,FDV 480 mg,1 (16.7) n (%)
same,Abdominal pain,FDV 800 mg,1 (16.7) n (%)
same,Diarrhea,FDV 800 mg,4 (66.7) n (%)
same,Dizziness,FDV 800 mg,1 (16.7) n (%)
same,Flatulence,FDV 800 mg,0 n (%)
same,Gastrointestinal disorders,FDV 800 mg,4 (66.7) n (%)
same,Headache,FDV 800 mg,1 (16.7) n (%)
same,Hepatobiliary disorders,FDV 800 mg,0 n (%)
same,Hyperbilirubinemia,FDV 800 mg,0 n (%)
same,Jaundice,FDV 800 mg,0 n (%)
same,Nausea,FDV 800 mg,1 (16.7) n (%)
same,Nervous system disorders,FDV 800 mg,1 (16.7) n (%)
same,Retching,FDV 800 mg,0 n (%)
same,Subjects with any AE,FDV 800 mg,4 (66.7) n (%)
same,Vomiting,FDV 800 mg,0 n (%)
same,Abdominal pain,"FDV 1,200 mg",0 n (%)
same,Diarrhea,"FDV 1,200 mg",3 (50.0) n (%)
same,Dizziness,"FDV 1,200 mg",1 (16.7) n (%)
same,Flatulence,"FDV 1,200 mg",1 (16.7) n (%)
same,Gastrointestinal disorders,"FDV 1,200 mg",4 (66.7) n (%)
same,Headache,"FDV 1,200 mg",0 n (%)
same,Hepatobiliary disorders,"FDV 1,200 mg",5 (83.3) n (%)
same,Hyperbilirubinemia,"FDV 1,200 mg",5 (83.3) n (%)
same,Nausea,"FDV 1,200 mg",1 (16.7) n (%)
same,Nervous system disorders,"FDV 1,200 mg",1 (16.7) n (%)
same,Retching,"FDV 1,200 mg",1 (16.7) n (%)
same,Subjects with any AE,"FDV 1,200 mg",6 (100) n (%)
same,Vomiting,"FDV 1,200 mg",0 n (%)
same,Jaundice,"FDV 1,200 mg, mild transient jaundice of the skin and sclera",1 (16.7) ^b n (%)
same,Severe vomiting,FDV 240-mg dose group,one subject
same,Subjects with an AE after treatment with FDV,"Part 1, all FDV dose groups",26 subjects out of 48
same,Subjects with AEs with a possible relationship to the study drug according to the investigator,"Part 1, receiving FDV",19 subjects
same,Subjects with marked hyperbilirubinemia (>3.0 mg/dL),"all dose groups, Part 1",seven subjects
same,Serious AEs,during the study (both parts),no serious AEs were reported; also recorded: No serious AEs occurred
same,Tolerability,"oral solution, single doses 4–1,200 mg",generally well tolerated
same,"Changes in alanine transaminase, hemoglobin, or neutrophil count",subjects with hyperbilirubinemia or elevated total bilirubin,no clinically relevant changes
same,"Changes in vital signs, ECGs, or medical examinations",whole study,No clinically relevant changes
same,Subjects with slight elevations of direct bilirubin,"whole study, groups not specified",14 subjects
